This data set addresses KRAS. The note with it: ASO.

Values joined by “and” are separate entries in the source; they are usually repeats but may differ in a detail not shown here. Equal entries are not always repeated. After the bases stand the sugars from the 5' end (letter, count) and the backbone: PS all phosphorothioate, else s phosphorothioate and o phosphodiester by linkage. Methylation of C is not given here. e = 2'-O-(2-methoxyethyl) (MOE); k = constrained ethyl (cEt); d = 2'-deoxy (DNA)

Under “A431, 2 µM”, AAAATTAATGTCTTGG (sugars k3 d10 k3, PS) showed a target mRNA inhibition of 12%.

With TCTTATGGTTAGGGGA (sugars k3 d10 k3, PS), the target mRNA inhibition (A431, 2 µM) stood at 8%.

The sequence CATTTATGTGACTAGA (sugars k3 d10 k3, PS) came in with a target mRNA inhibition (A431, 2 µM) of 56%.

AAAACAAATGCTAATA (sugars k3 d10 k3, PS) showed a target mRNA inhibition (A431, 2 µM) of 12%.

For the sequence “TGCTGTGAAACTCTCT (sugars kkdddddddddkdkdk, PS)”, under “A431, 2 µM”, the target mRNA inhibition stood at 26%.

For the sequence CATGTAAATATAGCCC (sugars k3 d10 k3, PS), for the setting “A431, 2 µM”, the target mRNA inhibition turned out to be 5%.

Regarding TTGTTGAGCTATCCAA (sugars k3 d10 k3, PS), for the setting “A431, 2 µM”, the target mRNA inhibition came out at 3%.

“GGAGTCTTTATAGTAA (sugars kkkddddddddkekek, PS)” returned a target mRNA inhibition (A431, 2 µM) of 0%.

On to “TGATTTGTCAGCAGGA (sugars kdddddddddkekeke, PS)”, for which the target mRNA inhibition (A431, 2 µM) stood at 32%.

With GTCTATTCATACCAGG (sugars k3 d10 k3, PS), the target mRNA inhibition (A431, 2 µM) came to 60%.

As to CTATTCATACCAGGTT (sugars k3 d10 k3, PS), the target mRNA inhibition (A431, 2 µM) came to 33%.

Regarding “CCAGTGATACTTTCAC (sugars kddddddddddkekek, PS)”, for the setting “A431, 2 µM”, the target mRNA inhibition turned out to be 0%.

Sequence “GAGTCTTTATAGTAAT (sugars kddddddddddkekek, PS)” gave a target mRNA inhibition (A431, 2 µM) of 11%.

Take AGTGTTTATGCAATGT (sugars k3 d10 k3, PS): the target mRNA inhibition by setting is: (A431, 0.185 µM) 27% and 9%; (A431, 0.556 µM) 46% and 21%; (A431, 1.667 µM) 65% and 46%; (A431, 2 µM) 69% and 50%; (A431, 5 µM) 83% and 67%.

“TGGTGTAACATAGGTT (sugars kkdddddddddkekek, PS)” gave a target mRNA inhibition (A431, 0.185 µM) of 21%; a target mRNA inhibition (A431, 0.556 µM) of 45%; a target mRNA inhibition (A431, 1.667 µM) of 66%; a target mRNA inhibition (A431, 2 µM) of 62%; a target mRNA inhibition (A431, 5 µM) of 83%.

As for “TCTTGATTTGTCAGCA (sugars kkddddddddddkeke, PS)”, the target mRNA inhibition (A431, 0.037 µM) turned out to be 84%; the target mRNA inhibition (A431, 0.125 µM) was 65% and 61%; the target mRNA inhibition (A431, 2 µM) is 91% and 92%; the target mRNA inhibition (NCI-H460, 0.037 µM) was 67.6%.

For the setting “A431, 2 µM”, “CTTGATTTGTCAGCAG (sugars kkdddddddddkekek, PS)” displayed a target mRNA inhibition of 49%.

As to TGCAGTGTGACTCAGT (sugars k3 d10 k3, PS), where the note is “A431, 2 µM”, the target mRNA inhibition turned out to be 55%.

AGTATTAACACAGAAG (sugars k3 d10 k3, PS) gave a target mRNA inhibition (A431, 2 µM) of 27%.

Turning to “ACCAGTGTTAAGAGAA (sugars k3 d9 k3 e1, PS)”, the target mRNA inhibition (A431, 2 µM) is 44%.

ATGCAATGTTAATTTA (sugars k3 d10 k3, PS) had a target mRNA inhibition (A431, 2 µM) of 9%.

Regarding AATTAGTGATTAGGTC (sugars k3 d10 k3, PS), the target mRNA inhibition (A431, 2 µM) is 32%.

The sequence “TCCATTTATGTGACTA (sugars kkkdddddddddkeke, PS)” showed a target mRNA inhibition (A431, 2 µM) of 8%.

For “CAGTGTGACTCAGTTA (sugars k3 d9 k3 e1, PS)”, the target mRNA inhibition (A431, 2 µM) is 42%.

Where the note is “A431, 2 µM”, “CCAGTGTTAAGAGAAC (sugars kkkddddddddkekek, PS)” returned a target mRNA inhibition of 37%.

In the case of AATCTTTTAATGTCAC (sugars k3 d10 k3, PS), the target mRNA inhibition (A431, 2 µM) is 44%.

“TCCAGTGATACTTTCA (sugars kkddddddddkekekk, PS)” gave a target mRNA inhibition (A431, 2 µM) of 24%.

TGTGAAACTCTCTATG (sugars k3 d10 k3, PS) came in with a target mRNA inhibition (A431, 2 µM) of 4%.

ATAGTTTCCATTGCCT (sugars k3 d10 k3, PS): the target mRNA inhibition is, setting by setting: (A431, 1.667 µM) 64% and 45%; (A431, 2 µM) 50% and 65%; (A431, 5 µM) 75% and 70%.

Take CTTATGCAGAGAAAAC (sugars k3 d10 k3, PS): the target mRNA inhibition (A431, 2 µM) was determined as 8%.

For TGCTGTGAAACTCTCT (sugars k3 d10 k3, PS), the target mRNA inhibition (A431, 2 µM) was determined as 27%.

Where the note is “A431, 2 µM”, CAAATGCTAATAATTT (sugars k3 d10 k3, PS) yielded a target mRNA inhibition of 0%.

Under “A431, 2 µM”, “CATTTATGTGACTAGA (sugars kkddddddddkekekk, PS)” displayed a target mRNA inhibition of 20%.

As to TAGTTTCCATTGCCTT (sugars k3 d10 k3, PS), the target mRNA inhibition (A431, 2 µM) turned out to be 16%.

For the setting “A431, 2 µM”, TGAATTAGTCTCCATT (sugars k3 d10 k3, PS) displayed a target mRNA inhibition of 17%.

For the setting “A431, 2 µM”, GCAATGTTAATTTAAC (sugars k3 d10 k3, PS) had a target mRNA inhibition of 17%.

In turn, TCTATTCATACCAGGT (sugars k3 d10 k3, PS) showed a target mRNA inhibition (A431, 2 µM) of 26%.

Consider AATCTTATGGTTAGGG (sugars k3 d10 k3, PS), for which the target mRNA inhibition by setting is: (A431, 0.185 µM) 2%; (A431, 0.556 µM) 2%; (A431, 1.667 µM) 35%; (A431, 2 µM) 45%; (A431, 5 µM) 52%.

The sequence “ATTGTGCTGAGCTTGA (sugars kkddddddddkekekk, PS)” returned a target mRNA inhibition (A431, 2 µM) of 31%.

For the setting “A431, 2 µM”, “TTGATTTGTCAGCAGG (sugars kddddddddddkekek, PS)” gave a target mRNA inhibition of 17%.

On to “GATTGTGCTGAGCTTG (sugars kkkddddddddkekek, PS)”, for which the target mRNA inhibition (A431, 2 µM) is 37%.

Consider “GTCCAGTGATACTTTC (sugars kdddddddddkekeke, PS)”, for which, where the note is “A431, 2 µM”, the target mRNA inhibition was found to be 20%.

With GGCATTGCTAGTTCAA (sugars k3 d10 k3, PS), the target mRNA inhibition (A431, 2 µM) was found to be 43%.

ATTTGTCAGCAGGACC (sugars k3 d10 k3, PS) gave a target mRNA inhibition (A431, 2 µM) of 35%.

Where the note is “A431, 2 µM”, TATCTTGTTGAGCTAT (sugars k3 d10 k3, PS) registered a target mRNA inhibition of 33%.

Take GCTAAAACAAATGCTA (sugars k3 d10 k3, PS): the target mRNA inhibition (A431, 2 µM) was found to be 33%.

Consider “TGTTTATGCAATGTTA (sugars kkddddddddkekekk, PS)”, for which the target mRNA inhibition by setting is: (A431, 0.185 µM) 22%; (A431, 0.556 µM) 47%; (A431, 1.667 µM) 68%; (A431, 2 µM) 56%; (A431, 5 µM) 76%.

“ATGCTGTGAAACTCTC (sugars kdddddddddkekeke, PS)”: the target mRNA inhibition (A431, 2 µM) turned out to be 24%.

On to ATTGTTTAAAAAAAAA (sugars k3 d10 k3, PS), for which the target mRNA inhibition (A431, 2 µM) turned out to be 0%.

In the case of “TGGTGTAACATAGGTT (sugars kkkddddddddkekek, PS)”, the target mRNA inhibition amounted to 31% (A431, 0.185 µM); 53% (A431, 0.556 µM); 79% (A431, 1.667 µM); 67% (A431, 2 µM); 82% (A431, 5 µM).

As for “GATTTGTCAGCAGGAC (sugars kddddddddddkekek, PS)”, the target mRNA inhibition by setting is: (A431, 0.185 µM) 16%; (A431, 0.556 µM) 46%; (A431, 1.667 µM) 62%; (A431, 2 µM) 57%; (A431, 5 µM) 78%.

Where the note is “A431, 2 µM”, “ATTGTGCTGAGCTTGA (sugars kddddddddddkekek, PS)” returned a target mRNA inhibition of 34%.

Sequence ATTAATCCATTTATGT (sugars k3 d10 k3, PS) had a target mRNA inhibition (A431, 2 µM) of 3%.

Consider ACTTTTTGACAAATGG (sugars k3 d10 k3, PS), for which, where the note is “A431, 2 µM”, the target mRNA inhibition worked out at 46%.

On to TGCTAATAATTTAGTG (sugars k3 d10 k3, PS), for which the target mRNA inhibition (A431, 2 µM) amounted to 6%.

For the sequence CTCTTGATTTGTCAGC (sugars k3 d10 k3, PS), the target mRNA inhibition reads like this: (A431, 0.037 µM) 66%; (A431, 0.125 µM) 64% and 57%; (NCI-H460, 0.037 µM) 55.4%.

In the case of ACCAGTGTTAAGAGAA (sugars k3 d10 k3, PS), the target mRNA inhibition was 5% and 3% (A431, 0.185 µM); 39% and 19% (A431, 0.556 µM); 59% and 43% (A431, 1.667 µM); 60% (A431, 2 µM); 72% and 60% (A431, 5 µM).

“ACCAGTGTTAAGAGAA (sugars kddddddddddkekek, PS)” registered a target mRNA inhibition (A431, 2 µM) of 44%.

Where the note is “A431, 2 µM”, ATTTCTGATGTGACTC (sugars k3 d10 k3, PS) gave a target mRNA inhibition of 49%.

Where the note is “A431, 2 µM”, TGTATCTTGTTGAGCT (sugars k3 d10 k3, PS) registered a target mRNA inhibition of 31%.

As to CTATAATAATCCCCAT (sugars k3 d10 k3, PS), where the note is “A431, 2 µM”, the target mRNA inhibition turned out to be 6%.

Turning to “GTCCAGTGATACTTTC (sugars kkkddddddddkdkdk, PS)”, the target mRNA inhibition (A431, 2 µM) stood at 30%.

Take AATTGTGCAATGGTGA (sugars k3 d10 k3, PS): the target mRNA inhibition (A431, 2 µM) is 46%.

“AGGAGTCTTTATAGTA (sugars kkddddddddddkeke, PS)” returned a target mRNA inhibition (A431, 2 µM) of 40%.

For the setting “A431, 2 µM”, “ACCAGTGTTAAGAGAA (sugars kkdddddddddkekek, PS)” registered a target mRNA inhibition of 49%.

The sequence “AGATTGTGCTGAGCTT (sugars kkkddddddddkdkdk, PS)” gave a target mRNA inhibition (A431, 2 µM) of 42%.

On to AAAAAATTAATGTCTT (sugars k3 d10 k3, PS), for which the target mRNA inhibition (A431, 2 µM) amounted to 9%.

Consider TAGTTTCACATAGCAA (sugars k3 d10 k3, PS), for which the target mRNA inhibition (A431, 2 µM) amounted to 51%.

Take GAGGCAAGATGACACT (sugars k3 d10 k3, PS): the target mRNA inhibition (A431, 2 µM) came to 0%.

In turn, TCTGTCTATTCATACC (sugars k3 d10 k3, PS) had a target mRNA inhibition (A431, 2 µM) of 12%.

“TTAGTGATTAGGTCAA (sugars kdddddddddkekeke, PS)” yielded a target mRNA inhibition (A431, 2 µM) of 0%.

“CAGTGTGACTCAGTTA (sugars kkddddddddkekekk, PS)” gave a target mRNA inhibition (A431, 0.185 µM) of 0%; a target mRNA inhibition (A431, 0.556 µM) of 36%; a target mRNA inhibition (A431, 1.667 µM) of 58%; a target mRNA inhibition (A431, 2 µM) of 63%; a target mRNA inhibition (A431, 5 µM) of 67%.

Sequence AATGCTAATAATTTAG (sugars k3 d10 k3, PS) gave a target mRNA inhibition (A431, 2 µM) of 0%.

In turn, TGTCTATTCATACCAG (sugars k3 d10 k3, PS) had a target mRNA inhibition (A431, 2 µM) of 16%.

Under “A431, 2 µM”, GGTGAATATCTTCAAA (sugars k3 d10 k3, PS) had a target mRNA inhibition of 28%.

TTTAAAAAAAAAATTA (sugars k3 d10 k3, PS) had a target mRNA inhibition (A431, 2 µM) of 3%.

The sequence GTCCAGTGATACTTTC (sugars k3 d10 k3, PS) came in with a target mRNA inhibition (A431, 2 µM) of 44%.

The values above are taken from the OligoGym collection.
